Results as given in US9937115B2, “Oral care compositions with improved flavor” (priority 2010, dated 2018).
Counter-ions that a name gives are not always drawn. Like-named read-outs stand apart in the source and are kept apart here. Residues, ends and D or L forms follow the SMILES beside them.

Target: T1, TRPA1 receptor (Homo sapiens, UniProt O75762)
T1 construct: expressed in transfected cells; host or cells: HEK cell line
Assay: cell-based
Design: activation: dose or concentration left out as unconfirmed
Method: The term “TRPA1 activator” as used herein refers to any component which at a concentration of 1 mM gives a calcium flux count of at least 1000 counts above the background level of calcium present in the cell according to the FLIPR method as discussed herein. The term “count” is defined as the change in fluorescence of the transfected cell lines due to the influx of calcium across the cell membrane, which reacts with the calcium sensitive dye present within the cells.
In order to select TRPA1 agonists that would be preferred for reducing off-tasting chemical components found in oral care compositions, calcium flux receptor activity on the TRPA1 was utilized as the criteria for selection of actives. With allyl isothiocyanate as the TRPA1 positive control, molecules that directly activated the TRPA1 receptor were screened in dimethylsulfoxide (DMSO). Pure molecules of each material were dissolved in DMSO at a concentration of 100 micormolar and then added to an HEK cell line containing the TRPA1 receptor. If they are TRPA1 agonists, they will cause a calcium flux in the cell which fluoresces and may then be measured using a FLIPR machine.

[1] = HEK293, percentage of the control (allyl isothiocyanate) calcium count, material dissolved in DMSO at 100 micromolar, HEK cells with TRPA1, direct addition, read-out: TRPA1 Direct addition
[2] = HEK293, percentage of the control (allyl isothiocyanate) calcium count, material dissolved in DMSO at 100 micromolar, HEK cells with TRPA1, pre-incubation, read-out: TRPA1 Pre-incubation
[3] = HEK293, read-out: TRPA1 Direct addition
[4] = HEK293, read-out: TRPA1 Pre-incubation
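Wherever TRPA1 Pre-incubation is given: values above 100 mean more active than the control.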

T1 sequence (O75762 whole entry): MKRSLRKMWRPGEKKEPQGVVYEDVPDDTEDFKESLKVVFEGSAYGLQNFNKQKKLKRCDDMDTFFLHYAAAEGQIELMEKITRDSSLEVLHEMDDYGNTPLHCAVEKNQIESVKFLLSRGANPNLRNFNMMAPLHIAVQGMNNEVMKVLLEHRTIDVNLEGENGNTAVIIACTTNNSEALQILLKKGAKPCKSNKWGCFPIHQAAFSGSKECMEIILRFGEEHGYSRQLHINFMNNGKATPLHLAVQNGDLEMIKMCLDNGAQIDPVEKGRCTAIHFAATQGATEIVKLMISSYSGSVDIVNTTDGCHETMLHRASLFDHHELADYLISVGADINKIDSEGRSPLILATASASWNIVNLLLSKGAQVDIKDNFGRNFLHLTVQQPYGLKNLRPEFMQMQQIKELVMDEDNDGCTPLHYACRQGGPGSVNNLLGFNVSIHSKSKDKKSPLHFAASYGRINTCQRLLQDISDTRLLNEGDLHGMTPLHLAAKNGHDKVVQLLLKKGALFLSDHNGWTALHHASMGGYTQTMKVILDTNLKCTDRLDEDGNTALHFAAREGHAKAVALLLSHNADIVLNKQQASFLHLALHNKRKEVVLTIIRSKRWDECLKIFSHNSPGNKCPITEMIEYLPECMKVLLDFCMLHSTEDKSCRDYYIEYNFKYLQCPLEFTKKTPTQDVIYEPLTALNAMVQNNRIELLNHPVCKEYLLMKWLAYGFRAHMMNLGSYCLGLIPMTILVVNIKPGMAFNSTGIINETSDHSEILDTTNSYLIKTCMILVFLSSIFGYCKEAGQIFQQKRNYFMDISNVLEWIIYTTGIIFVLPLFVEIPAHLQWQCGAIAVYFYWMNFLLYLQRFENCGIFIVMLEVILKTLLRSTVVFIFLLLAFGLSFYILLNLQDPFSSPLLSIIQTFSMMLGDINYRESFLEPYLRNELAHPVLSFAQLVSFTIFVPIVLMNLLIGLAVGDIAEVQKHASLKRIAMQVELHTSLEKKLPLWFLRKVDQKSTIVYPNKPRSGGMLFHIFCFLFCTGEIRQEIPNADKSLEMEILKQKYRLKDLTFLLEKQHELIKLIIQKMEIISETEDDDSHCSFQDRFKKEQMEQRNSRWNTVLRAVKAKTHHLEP

Work on COC(=O)[C@H](Cc1ccccc1)NC(=O)[C@@H](N)CC(=O)O [Aspartame] (H-Asp-Phe-OMe) yielded an activation at 100 µM [1] of -2.15% and an activation [2] of 80%.

For CCCCC(=O)OCC [Ethyl Valerate], the activation at 100 µM [1] was -0.08% and the activation [2] was 101%.

Compound CCC(C)C1CCCCC1=O (stereo not drawn) [2-sec-Butylcyclohexanon] has an activation at 100 µM [1] of -1.47% and an activation [2] of 63.7%.

With CC(=O)OCC(C)C [Isobutyl Acetate] the activation at 100 µM [1] was -0.23% and the activation [2] was 95.7%.

For CCC(C)C(=O)OCCC(C)C (stereo not drawn) [3-Methylbutyl-2-Methylbutanoate], the activation at 100 µM [1] was -1.18% and the activation [2] was 71.4%.

Work on CCCCCC/C=C/C=O [Trans-2-Nonenal] yielded an activation at 100 µM [1] of 123% and an activation [2] of 23.3%.

For CCC/C=C/COC(C)=O [Trans-2-Hexenyl Acetate], the activation at 100 µM [1] was -0.32% and the activation [2] was 68.7%.

CCC(C)CO (stereo not drawn) [2-Methyl-1-Butanol] gave an activation at 100 µM [1] of -1.19% and an activation [2] of 71.6%.

O=C([O-])C(=O)[O-].[Zn+2] [Zinc Oxalate] was tested, and the “TRPA1 Direct addition” value was 40.18% and the “TRPA1 Pre-incubation” value was 18.11%.

Compound CC(=O)O [Acetic Acid] has an activation [3] of 0.27% and an activation [4] of 68.5%.

CC(C)C(=O)OCCOc1ccccc1 [Phenoxyethyl Isobutyrate] was tested, and the activation at 100 µM [1] was -7.84% and the activation [2] was 36.8%.

Compound C=CC(C)(O)CCC=C(C)C (stereo not drawn) [Linalool] has an activation at 100 µM [1] of -1.58% and an activation [2] of 44.8%.

For CCCCCCO [Hexyl Alcohol], the activation at 100 µM [1] was -0.22% and the activation [2] was 66.2%.

C=Cc1ccc(O)c(OC)c1 [2-Methoxy-4-Vinylphenol] gave an activation at 100 µM [1] of 1.16% and an activation [2] of 71.4%.

Compound CCOC(=O)c1ccccc1 [Ethyl Benzoate] has an activation at 100 µM [1] of -0.07% and an activation [2] of 60.3%.

Work on CC(C)C(=O)OCc1ccccc1 [Benzyl Isobutyrate] yielded an activation at 100 µM [1] of -2.7% and an activation [2] of 65%.

COC(OC)c1ccccc1 [Benzaldehyde Dimethyl Acetal] gave an activation [3] of -0.68% and an activation [4] of 120%.

CCCCCCCCCCO [Material 1-Decanol, 1-Decanol] showed an activation at 100 µM [1] of -1.41% and an activation [2] of 59.8%.

Work on Cc1cnc(C)cn1 [2,5-Dimethylpyrazine] yielded an activation at 100 µM [1] of -1.08% and an activation [2] of 66.8%.

CCCCCCC(=O)OCC [Ethyl Heptanoate] was tested, and the activation at 100 µM [1] was 0.23% and the activation [2] was 79%.

Work on O=C(OCCc1ccccc1)c1ccccc1O [Phenethyl salicylate] yielded an activation at 100 µM [1] of 7.36% and an activation [2] of 110%.

In the case of CCOC(=O)CC(O)(CC(=O)OCC)C(=O)OCC [Triethyl Citrate], the activation at 100 µM [1] is reported as -9.43% and the activation [2] is reported as 82.2%.

With O=C1NS(=O)(=O)c2ccccc21.[Na] [Saccharin Sodium] the activation [3] was -12.4% and the activation [4] was 62.5%.

In the case of CCCCCCCCC=O [Nonanal], the activation at 100 µM [1] is reported as -14% and the activation [2] is reported as 51.4%.

CCCCOC(=O)CCC [Butyl Butyrate] was tested, and the activation at 100 µM [1] was -0.66% and the activation [2] was 62.3%.

In the case of [O]=[Zn] [Zinc Oxide], the “TRPA1 Direct addition” value is reported as −3.73% and the “TRPA1 Pre-incubation” value is reported as 71.09%.

C=C1CCC2CC1C2(C)C (stereo not drawn) [Beta-Pinene] gave an activation at 100 µM [1] of -6.02% and an activation [2] of 73.6%.

For CC(C)=CCC/C(C)=C/CO [Geraniol], the activation at 100 µM [1] was 5.19% and the activation [2] was 113%.

For CC=Cc1ccc(OCc2ccccc2)c(OC)c1 [1-Benzyloxy-2-Mehtoxy-4-(1-Propenyl) Benzene], the “TRPA1 Direct addition” value was −3.8% and the “TRPA1 Pre-incubation” value was 30.8%.

CC(=O)OC1CC(C)CCC1C(C)C (stereo not drawn) [Menthyl Acetate] gave an activation at 100 µM [1] of -7.24% and an activation [2] of 75.8%.

COc1ccc(CCC(C)=O)cc1 [4-(4-Methoxyphenyl)-2-Butanone] was tested, and the activation at 100 µM [1] was -3.93% and the activation [2] was 71.3%.

In the case of CCCC(=O)OCC [Ethyl Butyrate], the activation at 100 µM [1] is reported as -0.32% and the activation [2] is reported as 87%.

For CCCCCCCCCCCC(=O)O [Lauric Acid], the activation at 100 µM [1] was -2.82% and the activation [2] was 96%.

COc1cccc(OC)c1 [M-Dimethoxybenzene] was tested, and the activation at 100 µM [1] was -0.59% and the activation [2] was 80.6%.

Work on CC(=O)OC/C=C(\C)CCC=C(C)C [Geranyl Acetate] yielded an activation at 100 µM [1] of 0.33% and an activation [2] of 63.2%.

Compound C=CCOC(=O)c1ccccc1N [Allyl anthranilate] has an activation at 100 µM [1] of 0.29% and an activation [2] of 99.5%.

CC(=O)c1ccccc1 [Acetophenone] showed an activation at 100 µM [1] of 0.64% and an activation [2] of 81.1%.

In the case of Cc1occc(=O)c1O [Maltol], the activation at 100 µM [1] is reported as -2.79% and the activation [2] is reported as 102%.

CC(=O)OCc1ccc2c(c1)OCO2 [Piperonyl Acetate] gave an activation at 100 µM [3] of -0.28% and an activation at 100 µM [4] of 102%.

CCCCC(O)CC (stereo not drawn) [Material 3-Heptanol, 3-Heptanol] was tested, and the activation at 100 µM [1] was -1.06% and the activation [2] was 81.3%.

In the case of CC(C)CC=C(C=O)c1ccccc1 [5-Methyl-2-Phenyl-2-Hexenal], the activation [3] is reported as 132% and the activation [4] is reported as -11.7%.

CC1=CCC(C(C)C)=CC1 [Gamma-Terpinene] showed an activation at 100 µM [1] of 0.21% and an activation [2] of 61.5%.

CCCC(C)=O [Material 2-Pentanone, 2-Pentanone] showed an activation at 100 µM [1] of 0.73% and an activation [2] of 90.1%.

With Methyl Ionone the “TRPA1 Direct addition” value was 38.43% and the “TRPA1 Pre-incubation” value was −1.32%.

CC(=O)OCCC(C)C [Isoamyl Acetate] was tested, and the activation at 100 µM [1] was 0.07% and the activation [2] was 41%.

CCCCCCCCCC(C)C=O (stereo not drawn) [2-Methylundecanal] showed an activation at 100 µM [1] of 0.82% and an activation [2] of 79.8%.

In the case of CC(=O)OC1CC2CCC1(C)C2(C)C (stereo not drawn) [Bornyl Acetate], the activation at 100 µM [1] is reported as -0.6% and the activation [2] is reported as 51.2%.

Compound COc1cc(/C=C/C(=O)O)ccc1O [Trans-Ferulic Acid] has an activation at 100 µM [1] of -2.53% and an activation [2] of 85.6%.

CC1=CCC(C(C)(C)O)CC1 (stereo not drawn) [Alpha-Terpineol] was tested, and the activation at 100 µM [1] was 15.8% and the activation [2] was 60.5%.

With OCCc1ccccc1 [Phenyl Ethyl Alcohol] the activation at 100 µM [1] was -4.77% and the activation [2] was 55%.

With CC(C)=CCCC(C)CCOC=O (stereo not drawn) [Citronellyl Formate] the activation at 100 µM [1] was -0.57% and the activation [2] was 89.5%.

For CCCCCC/C=C/C=C/C=O [trans,trans-2,4-Undecadienal], the activation at 100 µM [1] was 122% and the activation [2] was -3.93%.

CCCCCCCO [Heptyl Alcohol] showed an activation at 100 µM [1] of 0.59% and an activation [2] of 70.7%.

For CC(=O)OC(C)(C)Cc1ccccc1 [Alpha, Alpha Dimethylphenethyl Acetate], the activation at 100 µM [1] was -3.2% and the activation [2] was 72%.

In the case of CC(O)C(=O)[O-].CC(O)C(=O)[O-].[Mg+2] (stereo not drawn) [Magnesium Lactate], the “TRPA1 Direct addition” value is reported as −4.49% and the “TRPA1 Pre-incubation” value is reported as 58.12%.

CCCC(=O)C(C)=O [2,3-Hexanedione] was tested, and the activation at 100 µM [1] was -0.19% and the activation [2] was 101%.

With O=S(=O)([O-])[O-].[Zn+2] [Zinc Sulfate] the “TRPA1 Direct addition” value was 29.79% and the “TRPA1 Pre-incubation” value was 21.7%.

In the case of Cn1cccc1C=O [1-Methylpyrrole-2-carboxaldehyde], the activation at 100 µM [1] is reported as -3.47% and the activation [2] is reported as -1.04%.

With CCCCCCCCCCCCO [Lauryl Alcohol] the activation at 100 µM [1] was -0.86% and the activation [2] was 50.5%.

CCCCCCCCCCCC(C)=O [2-Tridecanone] was tested, and the activation at 100 µM [1] was 7.21% and the activation [2] was 60.8%.

CC(C)C(=O)OCCc1ccccc1 [Phenylethyl Isobutyrate] was tested, and the activation at 100 µM [1] was -3.56% and the activation [2] was 63.9%.

In the case of O=Cc1ccco1 [Furfural], the activation at 100 µM [1] is reported as -0.15% and the activation [2] is reported as 69%.

CCCCCC(=O)OCC [Ethyl Hexanoate] gave an activation at 100 µM [1] of 0.41% and an activation [2] of 92.3%.

Work on CC/C=C\CCOC(=O)C/C=C\CC [cis-3-Hexenyl cis-3-Hexenoate, [(Z)-hex-3-enyl] (Z)-hex-3-enoate] yielded an activation at 100 µM [1] of -1.04% and an activation [2] of 122%.

CCCCCCOC(=O)CCCCC [Hexyl Hexanoate] was tested, and the activation at 100 µM [1] was 0.07% and the activation [2] was 67.4%.

Work on Cc1coc2c1CCC(C)C2 (stereo not drawn) [4,5,6,7-Tetrahydro-3,6-Dimethylbenzofuran] yielded an activation at 100 µM [1] of 0.57% and an activation [2] of 84.8%.

With CCc1ccccc1S [2-Ethylthiophenol] the activation at 100 µM [1] was 0.34% and the activation [2] was 5.23%.

Compound CCCCCCCC(C)=O [Material 2-Nonanone, 2-Nonanone] has an activation at 100 µM [1] of 0.36% and an activation [2] of 77.2%.

For CCCCCO [Amyl Alcohol], the activation at 100 µM [1] was -1.94% and the activation [2] was 85.9%.

C=CCOC(=O)CCCCCCCC [Allyl Nonanoate] gave an activation at 100 µM [1] of -1.87% and an activation [2] of 69.6%.

In the case of CCCC=O [Butyraldehyde], the activation at 100 µM [1] is reported as 28.9% and the activation [2] is reported as 66.2%.

CC(=O)OC(C)c1ccccc1 (stereo not drawn) [Alpha-Methylbenzyl Acetate] was tested, and the activation at 100 µM [1] was 1.45% and the activation [2] was 70.8%.

CSCCCO [3-(Methylthio) Propanol] showed an activation at 100 µM [1] of -0.92% and an activation [2] of 73.1%.

COC(=O)/C=C/c1ccccc1 [Methyl trans-Cinnamate] was tested, and the activation at 100 µM [1] was -16.8% and the activation [2] was 69.4%.

CC(C)CC(=O)OCC=Cc1ccccc1 [Cinnamyl Isovalerate] showed an activation at 100 µM [1] of -0.43% and an activation [2] of 49.7%.

C=CCc1ccc(OC(=O)c2ccccc2)c(OC)c1 [Eugenol benzoate] showed an activation at 100 µM [1] of 22.9% and an activation [2] of 57.3%.

For CCC/C=C/C=O [trans-2-Hexenal], the activation at 100 µM [1] was 1.62% and the activation [2] was 103%.

CCC(C)COC(C)=O (stereo not drawn) [2-Methylbutyl Acetate] was tested, and the activation at 100 µM [1] was -0.99% and the activation [2] was 60.3%.
